Among the test systems are 786-0 renal; CCRF-CEM leukemia; EKVX NSCLC; HCT-15 colon; HT29 colon; MDA-MB-231 breast; NCI-H522 lung; OVCAR-3 ovarian; T-47D breast; HOP-92 NSCLC.
Common to all, as to test: growth of human tumour cells (NCI), 48 h

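Step 1: Grow cells in 96-well plates. Step 2: Expose to compound for 48 hours at 5 concentrations. Step 3: Interpolate endpoints linearly; if unreached, use highest concentration. The concentration for 50% growth inhibition is given as GI50. TGI: concentration producing complete growth inhibition.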

Turning to `C/C(=C\c1c[nH]c2ccccc12)[N+](=O)[O-]`, the GI50 was 4.27 µM with 786-0 renal; 1.62 µM in the experiment with CCRF-CEM leukemia; 10.2 µM in the experiment on EKVX NSCLC; 2.48 µM with HCT-15 colon; 3.02 µM with HT29 colon; 11.4 µM in the experiment on MDA-MB-231 breast. Moreover, the GI50 is 3.19 µM in the experiment on NCI-H522 lung, 8.57 µM in the experiment on OVCAR-3 ovarian and 4.27 µM with T-47D breast. Also, the TGI in the experiment with 786-0 renal was 15.5 µM; with CCRF-CEM leukemia, 4.2 µM; in the experiment on EKVX NSCLC, 27.1 µM; with HCT-15 colon it was 13.7 µM; in the experiment on HT29 colon, 12.9 µM; in the experiment on MDA-MB-231 breast, 24.5 µM. Also, the TGI in the experiment with NCI-H522 lung amounted to 11.6 µM; in the experiment on OVCAR-3 ovarian it was 24.8 µM; with T-47D breast, 22.2 µM.

Regarding `NC(=O)Oc1cc(OC(N)=O)cc(N(CCCl)CCCl)c1`, the GI50 was 4.28 µM in the experiment on 786-0 renal; 0.902 µM in the experiment on CCRF-CEM leukemia; 6.31 µM with HCT-15 colon; 0.849 µM with HOP-92 NSCLC; 10.8 µM with HT29 colon; 25.9 µM in the experiment on MDA-MB-231 breast. Further, the GI50 in the experiment with NCI-H522 lung is 2.08 µM; in the experiment on OVCAR-3 ovarian, 4.74 µM; in the experiment with T-47D breast it was 7.78 µM. The TGI was 22.8 µM in the experiment on 786-0 renal; over 100 µM in the experiment with CCRF-CEM leukemia; over 100 µM with HCT-15 colon; 7.87 µM with HOP-92 NSCLC; 51.4 µM with HT29 colon; over 100 µM in the experiment with MDA-MB-231 breast. Besides, the TGI is 6.12 µM with NCI-H522 lung, 25.9 µM with OVCAR-3 ovarian and over 100 µM in the experiment with T-47D breast.

With `O=C(/C=C\Sc1nccc(C(F)(F)F)n1)c1ccc(Br)cc1`, the GI50 was 16.3 µM with 786-0 renal; 3.68 µM in the experiment with CCRF-CEM leukemia; 23.3 µM in the experiment on EKVX NSCLC; 20.7 µM in the experiment with HCT-15 colon; 19.6 µM with HT29 colon; 19.1 µM in the experiment on MDA-MB-231 breast. Further, the GI50 was 15 µM with NCI-H522 lung, 14.9 µM in the experiment with OVCAR-3 ovarian and 11.2 µM with T-47D breast. Also, the TGI with 786-0 renal is 34.2 µM; in the experiment with CCRF-CEM leukemia it was 11.9 µM; in the experiment on EKVX NSCLC, 67.4 µM; in the experiment with HCT-15 colon, 70.6 µM; in the experiment on HT29 colon, 41.6 µM; with MDA-MB-231 breast, 44.4 µM. For the same compound, the figures for the TGI with NCI-H522 lung, in the experiment with OVCAR-3 ovarian and with T-47D breast were 33.2 µM, 30.2 µM and 38.5 µM, respectively.

`Cn1cc(C2=C(c3c4n(c5ccccc35)CCC(CN)CC4)C(=O)NC2=O)c2ccccc21` (configuration not stated): the GI50 in the experiment with 786-0 renal was 4.58 µM; with CCRF-CEM leukemia, 5.19 µM; with HCT-15 colon, 4.82 µM; in the experiment with HOP-92 NSCLC it was 2.92 µM; with HT29 colon, 2.88 µM; in the experiment with MDA-MB-231 breast it was 3.25 µM. The GI50 was 4.08 µM in the experiment with NCI-H522 lung, 4.31 µM in the experiment on OVCAR-3 ovarian and 4.52 µM in the experiment with T-47D breast. Besides, the TGI in the experiment with 786-0 renal was 8.55 µM; in the experiment with CCRF-CEM leukemia it was 15.6 µM; in the experiment with HCT-15 colon it was 9.93 µM; in the experiment on HOP-92 NSCLC it was 7.69 µM; in the experiment on HT29 colon it was 9.29 µM; with MDA-MB-231 breast, 7.13 µM. Moreover, the TGI worked out at 8.11 µM with NCI-H522 lung, 8.75 µM in the experiment with OVCAR-3 ovarian and 9.87 µM with T-47D breast.

`CCN(CC)CCOc1cc2c(C(=O)OC)c(C)oc2cc1C(C)=O`: the GI50 in the experiment on 786-0 renal was 13.1 µM; in the experiment with CCRF-CEM leukemia, 2.92 µM; in the experiment with EKVX NSCLC, 8.75 µM; in the experiment with HCT-15 colon, 10.5 µM; in the experiment on HT29 colon, 17 µM; in the experiment with MDA-MB-231 breast it was 10.8 µM. Moreover, the GI50 with NCI-H522 lung is 13.2 µM; with OVCAR-3 ovarian, 45.1 µM; with T-47D breast it was 2.25 µM. Also, the TGI in the experiment with 786-0 renal was found to be 25.9 µM; in the experiment on CCRF-CEM leukemia, 7.59 µM; in the experiment with EKVX NSCLC it was 22.1 µM; with HCT-15 colon, 22.7 µM; in the experiment on HT29 colon it was 94.9 µM; with MDA-MB-231 breast, 23.5 µM. Besides, the TGI was over 100 µM in the experiment with NCI-H522 lung, over 100 µM in the experiment on OVCAR-3 ovarian and 7.75 µM in the experiment on T-47D breast.

In the case of `COc1ccc(F)cc1C(=O)c1cnc(NC2CCN(S(C)(=O)=O)CC2)nc1N`, the GI50 with 786-0 renal is 5.03 µM; in the experiment on CCRF-CEM leukemia it was 2.63 µM; with HCT-15 colon, 2.86 µM; with HOP-92 NSCLC it was 1.35 µM; in the experiment on HT29 colon, 2.86 µM; in the experiment with MDA-MB-231 breast it was 2.49 µM. Besides, the GI50 with NCI-H522 lung was 4.3 µM; with OVCAR-3 ovarian, 4.15 µM; in the experiment on T-47D breast it was 4.49 µM. For the same compound, the TGI is over 25 µM in the experiment with 786-0 renal; over 21.3 µM in the experiment with CCRF-CEM leukemia; over 20.5 µM in the experiment with HCT-15 colon; 9.59 µM with HOP-92 NSCLC; over 18.2 µM with HT29 colon; over 25 µM in the experiment with MDA-MB-231 breast. Also, the TGI in the experiment on NCI-H522 lung is 14.7 µM; with OVCAR-3 ovarian, 14.6 µM; with T-47D breast, over 22.6 µM.

Take `CN=S(=O)(C[C@]1(O)CC2OC1C1OC(C)(C)OC21)c1ccccc1` (some centres not stated): the TGI in the experiment on 786-0 renal, in the experiment with CCRF-CEM leukemia, with EKVX NSCLC, in the experiment with HCT-15 colon, in the experiment with HOP-92 NSCLC and in the experiment on HT29 colon was over 100 µM each time. Moreover, the TGI in the experiment with NCI-H522 lung and in the experiment on OVCAR-3 ovarian was over 100 µM each time.

On to `O=C(Cn1ccnc1[N+](=O)[O-])NCC(F)(F)C(F)(F)F`, for which the GI50 in the experiment on 786-0 renal, with EKVX NSCLC, in the experiment with HCT-15 colon, in the experiment with HOP-92 NSCLC, in the experiment with HT29 colon and in the experiment on MDA-MB-231 breast was over 100 µM in each case. For the same compound, the GI50 with NCI-H522 lung, in the experiment with OVCAR-3 ovarian and in the experiment with T-47D breast was over 100 µM throughout. Also, the TGI with 786-0 renal, with EKVX NSCLC, in the experiment on HCT-15 colon, in the experiment with HOP-92 NSCLC, with HT29 colon and with MDA-MB-231 breast was over 100 µM each time. The TGI in the experiment with NCI-H522 lung, in the experiment on OVCAR-3 ovarian and in the experiment with T-47D breast was over 100 µM each time.

On to `Cc1c(Cl)ccc2c1NC(=O)C2(O)C1Cc2ccccc2C1=O` (configuration not stated), for which the TGI in the experiment on 786-0 renal, in the experiment with CCRF-CEM leukemia, in the experiment on EKVX NSCLC, in the experiment on HCT-15 colon, in the experiment on HOP-92 NSCLC and with HT29 colon was over 100 µM throughout. For the same compound, the TGI in the experiment on NCI-H522 lung and in the experiment on OVCAR-3 ovarian was over 100 µM in each case.
